In US20110038948A1, “Methods of Reducing the Production of Reactive Oxygen Species and Methods of Screening or Identifying Compounds and Compositions that Reduce the Production of Reactive Oxygen Species” (UNIVERSITY OF TENNESSEE RESEARCH FOUNDATION, priority 2005, published 2011):

Legend:
3T3-L1 adipocytes [1] = assay: Intracellular Ca2+ in cultured adipocytes (fura-2); assay type: cell-based, mouse; details: H2O2 100 nmol/L, 4 hours; p<0.001
Protocol: 3T3-L1 preadipocytes were incubated at a density of 8000 cells/cm^2 (10 cm^2 dish) and grown in Dulbecco's modified Eagle's medium (DMEM) containing 10% FBS and antibiotics (adipocyte medium) at 37° C. in 5% CO2 in air. Confluent preadipocytes were induced to differentiate with a standard differentiation medium consisting of DMEM-F10 (1:1, vol/vol) medium supplemented with 1% FBS, 1 μM dexamethasone, IBMX (0.5 mM) and antibiotics (1% Penicillin-Streptomycin). Preadipocytes were maintained in this differentiation medium for 3 days and subsequently cultured in adipocyte medium. Cultures were re-fed every 2-3 days to allow 90% of cells to reach full differentiation before conducting chemical treatment. Chemicals were freshly diluted in adipocyte medium before treatment. Cells were washed with fresh adipocyte medium, re-fed with medium containing the different treatments, and incubated at 37° C. in 5% CO2 in air before analysis. Cell viability was measured via trypan blue exclusion. [Ca^2+]i in adipocytes was measured using a fura-2 dual-wavelength fluorescence imaging system. Cells were plated in 35-mm dishes […]). […] Cells were loaded with fura-2 acetoxymethyl ester (fura-2 AM) (10 μmol/L) in the same buffer for 2 h at 37° C. in a dark incubator with 5% CO2. To remove extracellular dye, cells were rinsed with HBSS three times and then post-incubated at room temperature for an additional 1 h for complete hydrolysis of cytoplasmic fura-2 AM. The dishes with dye-loaded cells were mounted on the stage of Nikon TMS-F fluorescence inverted microscope with a Cohu model 4915 charge-coupled device (CCD) camera. Fluorescent images were captured alternatively at excitation wavelengths of 340 and 380 nm with an emission wavelength of 520 nm. After establishment of a stable baseline, the responses to 1α, 25-(OH)2-D3 was determined. [Ca^2+]i was calculated using a ratio equation as described previously. Each analysis evaluated responses of 5 representative whole cells. Images were analyzed with […]2 version 4.62 imaging software (Intracellular Imaging, Cincinnati, Ohio). […]

fatty acid synthase = assay: Fatty acid synthase gene expression in adipocytes; assay type: cell-based, murine; details: p<0.05
Description: The adipose tissue-skeletal muscle endocrine axis may play a potential role in regulating metabolic energy partitioning. […] However, the effect of leucine and calcium, in regulating this process is unclear. Accordingly, present study was designed to investigate the effect of leucine, calcitriol and calcium on energy metabolism in murine adipocytes and muscle cells.

3T3-L1 adipocytes [2] = assay: Intracellular ROS generation in cultured adipocytes (H2-DCFDA); assay type: cell-based, mouse; details: compound plus glucose 30 mmol/L, 48 hours
Protocol: 3T3-L1 preadipocytes were incubated at a density of 8000 cells/cm^2 (10 cm^2 dish) and grown in Dulbecco's modified Eagle's medium (DMEM) containing 10% FBS and antibiotics (adipocyte medium) at 37° C. in 5% CO2 in air. Confluent preadipocytes were induced to differentiate with a standard differentiation medium consisting of DMEM-F10 (1:1, vol/vol) medium supplemented with 1% FBS, 1 μM dexamethasone, IBMX (0.5 mM) and antibiotics (1% Penicillin-Streptomycin). Preadipocytes were maintained in this differentiation medium for 3 days and subsequently cultured in adipocyte medium. Cultures were re-fed every 2-3 days to allow 90% of cells to reach full differentiation before conducting chemical treatment. Chemicals were freshly diluted in adipocyte medium before treatment. Cells were washed with fresh adipocyte medium, re-fed with medium containing the different treatments, and incubated at 37° C. in 5% CO2 in air before analysis. Cell viability was measured via trypan blue exclusion. […] Cells were loaded with H2-DCFDA (2 μmol/L) 30 minute before the end of the incubation period (48 h). After washing twice with PBS, cells were scraped and disrupted by sonication on ice (20 s). Fluorescence (emission 543 nm or 527 nm) and DNA content were then measured as described previously. The intensity of fluorescence was expressed as arbitrary units per ng DNA.

[3] = tested on: macrophage inhibitory factor (MIF); assay: MIF expression in human adipocytes; assay type: cell-based; details: calcitriol 10 nmol/L, 48 hours; p=0.001
Description: Cell culture: Human preadipocytes used in this study were supplied by Zen-Bio (Research Triangle, N.C.). Preadipocytes were inoculated in DMEM/Ham's F-10 medium (DMEM-F10) (1:1, vol/vol) containing 10% FBS, 15 mmol/L HEPES, and antibiotics at a density of 30,000 cells/cm2. Confluent monolayers of preadipocytes were induced to differentiate with a standard differentiation medium consisting of DMEM-F10 (1:1, vol/vol) medium supplemented with 15 mmol/L HEPES, 3% FBS, 33 μmol/L biotin, 17 μmol/L pantothenate, 100 nmol/L insulin, […] methylisobutylxanthine, 1 μmol/L dexamethasone, 1 μmol/L BRL49653, and antibiotics. […]
Cells were washed with fresh adipocyte medium, re-fed with medium containing the indicated treatments, and incubated at 37° C. in 5% CO2 for 48 hours before analysis. Cell viability was measured via trypan blue exclusion.
Adipocyte and muscle 18s, CD14, TNFα, MIP, M-CSF, IL-6 and MCP-1 were quantitatively measured using a Smart Cycler Real Time PCR System (Cepheid, Sunnyvale, Calif.) with a TaqMan 1000 Core Reagent Kit (Applied Biosystems, Branchburg, N.J.). […] Reactions of quantitative RT-PCR for standards and unknown samples were also performed according to the instructions of Smart Cycler System (Cepheid, Sunnyvale, Calif.) and TaqMan Real Time PCR Core Kit (Applied Biosystems, Branchburg, N.J.). […]

OO [H2O2, hydrogen peroxide]
increase in [Ca2+]i (3T3-L1 adipocytes [1]): 5 fold

C=C1/C(=C\C=C2/CCC[C@]3(C)[C@@H]([C@H](C)CCCC(C)(C)O)CC[C@@H]23)C[C@@H](O)C[C@@H]1O [calcitriol, 1,25-(OH)2-D3]
increase in adipocyte FAS gene expression (fatty acid synthase): 3 fold
effect on high glucose induced ROS production (3T3-L1 adipocytes [2]): greater stimulation of ROS production than either glucose alone or glucose plus GDP
increase in MIF expression [3]: 59%
